Patent US11214570B2, “Pyrrolopyridine derivative, method for producing same, and use thereof” (ST PHARM CO., LTD., priority 2017, dated 2022)
Where two headings read alike, the source gives them in different places.

What was measured:
[1] = system: HIV-1 NL4-3 wt; experiment: Inhibition of HIV-1 NL4-3 wt; format: cell-based; conditions: Human immunodeficiency virus 1, NL43
Experimental: (§1) In order to look into the HIV-1 (Wild/Mutant type) inhibition effects of the compound of the invention, a test for HIV-1 (Wild/Mutant type) inhibition effect was carried out in vitro as follows according to a known method (H. Tanaka et al., J. Med. Chem., 1991, 34, 349). MT-4 cells were used as host cells, and the degree of the compound of the present invention inhibiting cytotoxicity for the virus-infected MT-4 cells was investigated.
(§2) First, MT-4 cells were dispersed in a culture medium at a concentration of 1×10^4cells/well, and HIV-1 was inoculated so that the concentration was 500 TCI50 (concentration at which 50% of the cells are infected)/well. Immediately after the inoculation, the cell dispersion was transferred in 100 μL each to a flat microtiter plate in which a sample of the compound of the invention was placed. The sample was incubated for approximately for 4 to 5 days at […], and the virus inhibition effect was determined with an MTT method. […] As a comparative compound, azidothymidine (AZT), Raltegravir, Dolutegravir, and Elvitegravir were used.

[2] = system: HIV-1 Clone 4736_2; experiment: microbe, parasite or virus in culture; format: cell-based; conditions: Human immunodeficiency virus 1
Experimental: as §1, §2

[3] = system: HIV-1 Clone 4736_4; experiment: Inhibition of HIV-1 clone 4736_4 (Raltegravir resistance mutant); format: cell-based; conditions: Human immunodeficiency virus 1
Experimental: as §1, §2

[4] = system: HIV-1 Clone 8070_1; experiment: Inhibition of HIV-1 clone 8070_1 (Raltegravir resistance mutant); format: cell-based; conditions: Human immunodeficiency virus 1
Experimental: as §1, §2

[5] = system: HIV-1 Clone 8070_2; experiment: Inhibition of HIV-1 clone 8070_2 (Raltegravir resistance mutant); format: cell-based; conditions: Human immunodeficiency virus 1
Experimental: as §1, §2

[6] = system: HIV-1 Clone 1556_1; experiment: Inhibition of HIV-1 clone 1556_1 (Raltegravir resistance mutant); format: cell-based; conditions: Human immunodeficiency virus 1
Experimental: as §1, §2

[7] = system: Wild Type HIV-1(IIIB); experiment: Inhibition of wild type HIV-1(IIIB) in MT-4 cells (MTT method); format: cell-based
Experimental: as §1, §2

[8] = Pharmacokinetics test in male rats; format: in vivo, rat
Experimental: Experiments were carried out to detect changes in in vivo kinetics including in vivo absorption, distribution, metabolism and excretion for the compound of Example 1 of the present invention. A tube was inserted into the jugular vein and femoral vein of a rat. A drug was administered into the femoral vein in the case of intravenous administration, and a drug was administered into the oral cavity in the case of oral administration. Blood was collected from the jugular vein at a predetermined time. Dose concentration was 1 mg/kg for intravenous administration, and it was 2 mg/kg for oral administration. After centrifuging blood to separate plasma, the plasma and urine samples were pretreated with an appropriate organic solvent, and then concentration of the drug was analyzed with LC-MS/MS. From the data of the drug concentration in blood relative to time which were analyzed after oral and intravenous administrations, the noncompartmental pharmacokinetic parameter was calculated with WinNonlin (Pharsight, USA).

[9] = Liver microsomal stability, rat; format: in vitro ADME; conditions: rat liver microsome, NADPH
Experimental: (§3) The in vitro metabolic stability test was conducted for the compound of Example 1 of the present invention. In order to confirm in vitro metabolic stability, liver microsomal half-life of the compound was observed. A drug compound was reacted with NADPH using a species-specific (rat, dog, monkey, and human) liver microsome containing various metabolizing enzymes, and then half-life of the drug was determined by quantifying with LC-MS/MS in minutes.

[10] = Liver microsomal stability, dog; format: in vitro ADME; conditions: dog liver microsome, NADPH, read-out: Dog liver (T1/2, Min)
Experimental: as §3

[11] = Liver microsomal stability, monkey; format: in vitro ADME; conditions: monkey liver microsome, NADPH, read-out: Monkey liver (T1/2, Min)
Experimental: as §3

[12] = Liver microsomal stability, human; format: in vitro ADME; conditions: human liver microsome, NADPH
Experimental: as §3

[13] = biological target: T1, hERG K+ channel (Homo sapiens, UniProt Q12809); experiment: hERG K+ channel assay (Patch Clamp Recording Method); format: cell-based; conditions: HERG-HEK293, automated planar patch clamp
T1 construct: expressed in transfected cells; host or cells: HERG-HEK293
Experimental: hERG K^+ channel assay was carried out to predict cardiotoxicity for the compound of the invention. The hERG activity of the compound was measured with HERG-HEK293 using automated planar patch clamp [PatchXpress 7000A]. This method is the most well-known method for studying ion channel, in which the flow of ions through the channel is directly measured with a voltage clamp.

[14] = system: CYP1A2, CYP2C9, CYP2D6, CYP3A4 and CYPC19; experiment: CYP450 inhibition test (five enzymes, text summary); format: in vitro ADME; conditions: human liver microsomes, 10 μM
Experimental: The CYP450 inhibition test was carried out for the compound of the present invention. To human liver microsomes (0.25 mg/ml), 0.1 M phosphate buffer (pH 7.4) and drug cocktails of five drug-metabolizing enzymes (CYP1A2, CYP2C9, CYP2D6, CYP3A4 and CYPC19) (Cocktail A: Phenacetin 50 μM, S-mephenytoin 100 μM, dextromethorphan 5 nM, midazolam 2.5 μM, Cocktail B: tolbutamide 100 μM), the compound of Example 1 was added at concentrations of 0 and 10 μM, respectively, and then cultured at 37° C. for 15 minutes. Subsequently, in order to terminate the reaction, an acetonitrile solution containing an internal standard (chloropropamide) was added thereto, and resulting mixture was centrifuged (14,000 rpm, 4° C.) for 5 minutes. Supernatant was then injected into LC/MS/MS system and the metabolites of the substrate drugs were simultaneously analyzed to thereby evaluate activities of the test compound inhibiting the drug-metabolizing enzymes.

[15] = Human immunodeficiency virus 1, IIIB, MT4, read-out: EC50: concentration of 50% inhibition of HIV infection

T1 sequence (Q12809 whole entry): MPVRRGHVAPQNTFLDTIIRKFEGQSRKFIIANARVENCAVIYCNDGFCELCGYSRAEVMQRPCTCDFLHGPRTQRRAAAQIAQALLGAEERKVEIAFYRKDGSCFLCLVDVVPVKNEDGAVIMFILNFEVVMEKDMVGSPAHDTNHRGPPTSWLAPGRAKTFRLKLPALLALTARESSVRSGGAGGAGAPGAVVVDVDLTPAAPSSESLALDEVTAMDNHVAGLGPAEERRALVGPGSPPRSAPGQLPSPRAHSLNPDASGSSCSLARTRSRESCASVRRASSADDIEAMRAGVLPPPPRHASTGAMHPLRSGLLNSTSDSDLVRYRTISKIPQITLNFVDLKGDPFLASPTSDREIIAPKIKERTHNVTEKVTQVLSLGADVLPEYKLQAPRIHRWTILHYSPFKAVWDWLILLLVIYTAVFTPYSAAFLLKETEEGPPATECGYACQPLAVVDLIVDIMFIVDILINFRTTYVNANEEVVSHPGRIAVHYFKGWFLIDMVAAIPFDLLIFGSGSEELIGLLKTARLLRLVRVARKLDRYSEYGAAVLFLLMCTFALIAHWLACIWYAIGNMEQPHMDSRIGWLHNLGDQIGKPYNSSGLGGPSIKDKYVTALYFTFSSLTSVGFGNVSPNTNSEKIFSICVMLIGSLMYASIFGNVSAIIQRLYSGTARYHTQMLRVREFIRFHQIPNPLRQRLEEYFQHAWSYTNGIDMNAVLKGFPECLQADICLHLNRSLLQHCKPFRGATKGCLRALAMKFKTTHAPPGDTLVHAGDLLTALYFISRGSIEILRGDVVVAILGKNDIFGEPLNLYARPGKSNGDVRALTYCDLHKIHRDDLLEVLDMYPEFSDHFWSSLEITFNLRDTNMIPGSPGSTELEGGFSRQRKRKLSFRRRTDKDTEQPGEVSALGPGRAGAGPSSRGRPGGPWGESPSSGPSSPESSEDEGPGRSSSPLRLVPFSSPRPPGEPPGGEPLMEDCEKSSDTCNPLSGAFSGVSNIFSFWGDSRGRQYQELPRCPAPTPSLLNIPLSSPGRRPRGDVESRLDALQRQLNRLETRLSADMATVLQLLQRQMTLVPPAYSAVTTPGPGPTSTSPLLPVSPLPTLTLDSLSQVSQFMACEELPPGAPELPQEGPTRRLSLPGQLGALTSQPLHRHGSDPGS

Question: Which IC50 ([1]; NL4-3 wt, read-out: IC50) does the source give for C[C@@H]1CCO[C@H]2Cn3cc(C(=O)NCc4ccc(F)cc4F)c(=O)c(O)c3C(=O)N12 [Dolutegravir] here?
Answer: 3.2 nM

Question: And the IC50 [2]?
Answer: 3.5 nM

Question: And the IC50 [3]?
Answer: 3 nM

Question: What about the IC50 [4] of the same compound?
Answer: 8.5 nM

Question: What about the IC50 [5] of the same compound?
Answer: 4.4 nM

Question: And the IC50 [6]?
Answer: 3.2 nM

Question: For COc1cc2c(cc1Cc1cccc(Cl)c1F)c(=O)c(C(=O)O)cn2[C@H](CO)C(C)C [Elvitegravir], which IC50 [1] is on record?
Answer: < 0.1 nM

Question: And the IC50 [2]?
Answer: 410 nM

Question: And the IC50 [3]?
Answer: 320 nM

Question: What about the IC50 [4] of the same compound?
Answer: > 10000 nM

Question: What about the IC50 [6] of the same compound?
Answer: 276 nM

Question: For Cc1nc2c(c(C)c(C)n2Cc2cnn(C)c2)c(-c2ccc(Cl)cc2)c1[C@H](OC(C)(C)C)C(=O)O [Example 1], which EC50 [7, 15] is on record?
Answer: 3.23 nM

Question: And the IC50 [1]?
Answer: 3.6 nM

Question: And the IC50 [2]?
Answer: 1.1 nM

Question: What about the IC50 [3] of the same compound?
Answer: 3.4 nM

Question: What about the IC50 [4] of the same compound?
Answer: 0.9 nM

Question: What about the IC50 [5] of the same compound?
Answer: 3.4 nM

Question: What about the IC50 [6] of the same compound?
Answer: 3.4 nM

Question: And the F ([8]; PO, 2 mg/kg)?
Answer: 71.8%

Question: And the AUC(0-inf) ([8]; rat, plasma, IV, 1 mg/kg)?
Answer: 6.51 µM·h

Question: And the AUC(0-t) ([8]; rat, plasma, IV, 1 mg/kg)?
Answer: 6.08 µM·h

Question: And the clearance ([8]; rat, plasma, IV, 1 mg/kg)?
Answer: 5.38 mL/min/kg

Question: And the half-life ([8]; rat, plasma, IV, 1 mg/kg)?
Answer: 8.63 h

Question: And the Vd ([8]; rat, plasma, IV, 1 mg/kg, read-out: Vss)?
Answer: 1.77 L/kg

Question: What about the AUC(0-inf) ([8]; rat, plasma, PO, 2 mg/kg) of the same compound?
Answer: 10.4 µM·h

Question: And the AUC(0-t) ([8]; rat, plasma, PO, 2 mg/kg)?
Answer: 8.73 µM·h

Question: What about the Cmax ([8]; rat, plasma, PO, 2 mg/kg) of the same compound?
Answer: 914 nM

Question: And the Tmax ([8]; rat, plasma, PO, 2 mg/kg)?
Answer: 3.2 h

Question: What about the half-life ([8]; rat, plasma, PO, 2 mg/kg) of the same compound?
Answer: 8.66 h

Question: What about the half-life ([9]; liver microsomes, read-out: Rat liver (T1/2, Min)) of the same compound?
Answer: > 145 min

Question: What about the half-life ([10]; liver microsomes) of the same compound?
Answer: > 145 min

Question: What about the half-life ([11]; liver microsomes) of the same compound?
Answer: 133 min

Question: What about the half-life ([12]; liver microsomes, read-out: Human liver (T1/2, Min)) of the same compound?
Answer: 136 min

Question: What about the IC50 [13] of the same compound?
Answer: 66700 nM

Question: And the “inhibitory activity against five CYP enzymes” value [14]?
Answer: does not exhibit an inhibitory activity

Question: With Cc1nn(C)c(Cl)c1Cn1c(C)c(C)c2c(-c3ccc(Cl)cc3)c([C@H](OC(C)(C)C)C(=O)O)c(C)nc21 [Example 2, (S)-2-(tert-butoxy)-2-(1-((5-chloro-1,3-dimethyl-1H-pyrazol-4-yl)methyl)-4-(4-chlorophenyl)-2,3,6-trimethyl-1H-pyrrolo[2,3-b]pyridin-5-yl) acetic acid] as the compound, how does the EC50 ([7]; Human immunodeficiency virus 1, MT4, Wild Type HIV-1(IIIB) in MT-4 Cells, MTT method, read-out: EC50: concentration of 50% inhibition of HIV infection) read?
Answer: 25.7 nM

Question: What does the source list for Cc1nnc(C(=O)NC(C)(C)c2nc(C(=O)NCc3ccc(F)cc3)c(O)c(=O)n2C)o1 [Raltegravir]?
Answer: EC50 [7, 15]: 5.85 nM; IC50 [1]: 4.6 nM; IC50 [2]: 351 nM; IC50 [3]: 351 nM; IC50 [4]: 4320 nM; IC50 [5]: 3840 nM; IC50 [6]: 3760 nM

Question: With C[C@]12CC[C@H]3[C@@H](CCC4=CC(=O)CC[C@@]43C)[C@@H]1CC[C@@H]2O [Testosterone, reference compound] as the compound, how does the “Rat liver (T1/2, Min)” value [9] read?
Answer: 0.7 min

Question: What about the half-life ([10]; microsomes) of the same compound?
Answer: 23.6 min

Question: And the half-life ([11]; microsomes)?
Answer: 13 min

Question: And the “Human liver (T1/2, Min)” value [12]?
Answer: 19.7 min
